Assay results taken from patent EP4722262A1, “PHOTOCURABLE COMPOSITION, THREE-DIMENSIONAL SHAPED OBJECT, CASTING MOLD, METHOD FOR PRODUCING CURED OBJECT, AND METHOD FOR PRODUCING DENTAL PROSTHESIS” (Mitsui Chemicals, Inc., priority 2023, dated 2025).

Experiment: Viscosity at 25°C of manufactured monomers
Format: physicochemical

C=CC(=O)OCCOC(=O)NCCC(C)CC(C)(C)CNC(=O)OCCOC(=O)C=C (stereo not shown) [SUA-001]
viscosity at 25°C: 7,100 mPa·s
